The values below come from ChEMBL document CHEMBL1201862, “PubChem BioAssay data set” (2004).

Activity calls are given as the source filed them.

One data set concerns HEK293. Kind of data set: Fluorescence-based counterscreen for potentiators or agonists of NPY-Y2: cell-based high-throughput dose response assay to identify inhibitors of cyclic nucleotide gated ion channel (CNGC) activity. In this assay, the parental HEK293 cell line transfected with a cyclic-nucleotide gated ion channel (CNGC)-based cAMP sensor is used to measure inhibition of isoproterenol-induced CNGC activity by test compound. The data set is classed as functional. The settings on record: Homo sapiens.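 Note: stimulus is 1 µM isoproterenol at EC100 plus PDE inhibitor Ro 20-1724 at 25 µM.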

Data set [1] can be described thus: THP-1 cell cytotoxicity, dose response, cytotoxicity control for Vif-APOBEC3G degradation inhibitor project, THP-1 cells (AID 1117359). The data set is classed as functional. The following applies: Human immunodeficiency virus 1, THP-1.
In data set [2] the target is T1, Neuropeptide Y receptor type 1 (Homo sapiens, UniProt P25929).
T1 sequence (P25929 whole entry): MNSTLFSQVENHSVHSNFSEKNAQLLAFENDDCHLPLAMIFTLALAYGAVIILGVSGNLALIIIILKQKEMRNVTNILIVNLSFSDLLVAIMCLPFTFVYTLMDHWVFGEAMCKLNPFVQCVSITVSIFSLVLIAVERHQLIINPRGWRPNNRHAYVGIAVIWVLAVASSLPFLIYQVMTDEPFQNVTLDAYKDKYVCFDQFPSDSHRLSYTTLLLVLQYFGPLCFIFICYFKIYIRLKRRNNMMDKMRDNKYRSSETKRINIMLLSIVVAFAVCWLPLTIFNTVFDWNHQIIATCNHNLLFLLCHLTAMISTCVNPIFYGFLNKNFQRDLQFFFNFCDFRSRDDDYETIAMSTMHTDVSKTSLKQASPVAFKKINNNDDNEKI
Kind of data set: Fluorescence-based counterscreen for agonists of NPY-Y2: cell-based high-throughput dose response assay for agonists of NPY-Y1. Format: functional.

Data set [3] addresses T2, Neuropeptide Y receptor type 2 (Homo sapiens, UniProt P49146).
T2 sequence (P49146 whole entry): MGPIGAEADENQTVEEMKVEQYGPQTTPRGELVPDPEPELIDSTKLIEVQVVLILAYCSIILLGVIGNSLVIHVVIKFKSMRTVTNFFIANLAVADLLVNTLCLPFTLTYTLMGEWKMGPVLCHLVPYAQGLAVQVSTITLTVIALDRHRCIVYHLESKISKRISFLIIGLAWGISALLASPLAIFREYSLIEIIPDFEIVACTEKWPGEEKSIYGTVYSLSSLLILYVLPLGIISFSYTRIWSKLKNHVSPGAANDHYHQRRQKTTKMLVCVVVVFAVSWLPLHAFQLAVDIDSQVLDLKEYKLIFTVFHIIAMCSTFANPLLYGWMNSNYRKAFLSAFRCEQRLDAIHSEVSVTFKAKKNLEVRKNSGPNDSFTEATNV
Kind of data set: Fluorescence-based cell-based high-throughput dose response assay for agonists of NPY-Y2. [Related pubchem assays: 1703 (Screening assay (CNGC inhibitors).), 1359 (Screening assay (NPY-Y2 potentiators or agonists).), 1304 (Screening assay (NPY-Y1 potentiators or agonists).), 1710 (Screening assay (NPY-Y2 agonists).), 1791 (Summary AID.)]. Format: functional.

The nature of data set [4]: cytotoxicity toward NIH3T3 fibroblasts, dose response, counter-screen, cell-based, ATP luminescence, mouse fibroblasts (AID 2010).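 Note: cells exposed to compound for about 90 hours before reading.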 Format: functional. On the technique in general: The purpose of a counterscreen is to sort out artefacts and off-target activity.
Data set [5] is described as follows: inhibitors of Vif binding to APOBEC3G peptide, primary screen, biochemical, TR-FRET, GST-Vif 1-94, biotin-A3G peptide, dose response retest (AID 1117319).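 Note: TR-FRET signal of purified GST-Vif binding a biotinylated A3G peptide; inhibitors lower the FRET signal by blocking Vif and A3G binding.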 The data set is classed as functional.
Data set [6] in a line: inhibitors of intracellular T. cruzi replication, confirmation, NIH3T3 host cells, beta-gal luminescence (AID 2044).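 Note: intracellular parasites grown in NIH/3T3 mouse fibroblasts as host cells; luminescent beta-galactosidase reporter signal from transgenic T. cruzi replicating inside host cells; inhibitors lower the luminescence signal.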 Format: functional, cell-based.
Data set [7] deals with Lysosomal acid glucosylceramidase (Homo sapiens, UniProt P04062). Kind of data set: Dose response cell-based high throughput screening assay to identify enhancers of beta-glucosidase activity. [Related pubchem assays: 784 ]. Format: functional.
Another data set addresses Cytochrome P450 2C19 (Homo sapiens, UniProt P33261). The data set can be described thus: Cytochrome panel assay with activity outcomes. Panel member name: p450-cyp2c19 Compounds with AC50 equal or less than 10 uM are considered active. The data set is classed as functional.
Another data set addresses Cytochrome P450 2D6 (Homo sapiens, UniProt P10635).
Another data set deals with Cytochrome P450 2C9 (Homo sapiens, UniProt P11712).
The target of the next data set is ORF 73 (Human herpesvirus 8, UniProt O40947). Kind of data set: inhibitors of C-LANA binding to LBS DNA, dose response, biochemical, fluorescence polarization, cherry-picked samples (AID 504725).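 Note: fluorescence polarization of a labeled DNA duplex reporting LANA DNA binding; potency is for inhibitors that block LANA binding to the DNA.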 The arrangement: species or system Human gammaherpesvirus 8. A general note: In fluorescence polarisation assays a small probe gives low polarisation when free and higher when bound to something large.

In the next data set the target is Genome polyprotein (dengue virus type 2, UniProt P29990). Kind of data set: Dengue-2 NS5 methyltransferase inhibitors, primary screen, biochemical, confirmation dose response (AID 588689). Format: functional.
Data set [8] deals with Glucose-6-phosphate 1-dehydrogenase (Homo sapiens, UniProt P11413). The data set can be described thus: human G6PD enzyme inhibitors, dose response, selectivity assay for P. falciparum G6PD inhibitor project, biochemical, fluorescence (AID 504792). Format: functional.
The next data set has as its system HeLa. Kind of data set: HeLa cell cytotoxicity, dose response, cytotoxicity control, 24 h, cherry-picked samples (AID 504726).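 Note: potency for cytotoxicity as loss of luminescence signal.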 The settings on record: Homo sapiens. The data set is classed as functional, cell-based.
The target in the next data set is Troponin, cardiac muscle (Homo sapiens, UniProt P19429+P45379+P63316). The data set can be described thus: inhibitors of cardiac thin filament calcium sensitivity, dose response, biochemical, fluorescence, cardiac regulated thin filaments, triplicate IC50 (AID 504742). The data set is classed as protein-complex assay.
Data set [9] deals with Metabotropic glutamate receptor 4 (Rattus norvegicus, UniProt P31423). The data set can be described thus: Modulation of the Metabotropic Glutamate Receptor mGluR4: Rat PAM Potency. [Related pubchem assays (depositor defined):AID2437, AID2807]. The data set is classed as functional.
Chain of Metabotropic glutamate receptor 4 (P31423 whole entry): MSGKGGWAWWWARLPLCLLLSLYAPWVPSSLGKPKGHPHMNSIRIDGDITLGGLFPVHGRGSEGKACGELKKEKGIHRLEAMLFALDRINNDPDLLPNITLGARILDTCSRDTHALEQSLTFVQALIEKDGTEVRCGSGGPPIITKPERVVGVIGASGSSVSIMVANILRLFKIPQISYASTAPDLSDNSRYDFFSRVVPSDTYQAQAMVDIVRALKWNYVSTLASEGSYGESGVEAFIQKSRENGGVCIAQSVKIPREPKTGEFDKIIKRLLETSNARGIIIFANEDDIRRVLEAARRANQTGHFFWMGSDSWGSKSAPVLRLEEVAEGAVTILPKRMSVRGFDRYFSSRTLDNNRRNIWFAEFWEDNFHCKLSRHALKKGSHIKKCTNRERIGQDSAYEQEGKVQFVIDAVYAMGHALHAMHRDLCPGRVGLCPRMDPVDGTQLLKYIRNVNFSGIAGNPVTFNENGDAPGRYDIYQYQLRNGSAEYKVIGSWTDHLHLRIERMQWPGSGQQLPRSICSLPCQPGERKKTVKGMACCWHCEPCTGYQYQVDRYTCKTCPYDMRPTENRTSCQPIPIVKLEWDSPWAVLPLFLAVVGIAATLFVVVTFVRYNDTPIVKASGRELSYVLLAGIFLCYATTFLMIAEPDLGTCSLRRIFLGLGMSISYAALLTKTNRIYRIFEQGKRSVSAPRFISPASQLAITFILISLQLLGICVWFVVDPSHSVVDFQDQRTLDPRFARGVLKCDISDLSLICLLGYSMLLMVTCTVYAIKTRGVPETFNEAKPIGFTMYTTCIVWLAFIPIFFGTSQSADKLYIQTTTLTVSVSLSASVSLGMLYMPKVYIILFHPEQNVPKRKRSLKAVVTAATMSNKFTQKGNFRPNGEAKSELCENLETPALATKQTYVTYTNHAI

Chain of Cytochrome P450 2C9 (P11712 whole entry): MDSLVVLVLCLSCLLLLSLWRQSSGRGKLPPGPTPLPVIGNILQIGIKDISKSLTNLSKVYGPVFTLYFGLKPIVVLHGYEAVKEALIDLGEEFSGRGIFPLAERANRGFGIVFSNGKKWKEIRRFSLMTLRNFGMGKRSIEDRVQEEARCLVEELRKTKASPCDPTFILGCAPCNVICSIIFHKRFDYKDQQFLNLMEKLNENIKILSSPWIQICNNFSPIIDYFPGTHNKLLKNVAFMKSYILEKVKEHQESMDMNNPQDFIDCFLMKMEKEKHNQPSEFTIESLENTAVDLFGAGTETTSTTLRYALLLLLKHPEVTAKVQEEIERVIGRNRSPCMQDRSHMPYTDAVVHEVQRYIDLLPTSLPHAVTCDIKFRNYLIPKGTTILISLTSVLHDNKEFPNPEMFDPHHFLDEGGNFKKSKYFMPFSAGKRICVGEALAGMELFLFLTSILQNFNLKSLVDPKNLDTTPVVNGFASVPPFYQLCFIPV
Chain of Cytochrome P450 2D6 (P10635 whole entry): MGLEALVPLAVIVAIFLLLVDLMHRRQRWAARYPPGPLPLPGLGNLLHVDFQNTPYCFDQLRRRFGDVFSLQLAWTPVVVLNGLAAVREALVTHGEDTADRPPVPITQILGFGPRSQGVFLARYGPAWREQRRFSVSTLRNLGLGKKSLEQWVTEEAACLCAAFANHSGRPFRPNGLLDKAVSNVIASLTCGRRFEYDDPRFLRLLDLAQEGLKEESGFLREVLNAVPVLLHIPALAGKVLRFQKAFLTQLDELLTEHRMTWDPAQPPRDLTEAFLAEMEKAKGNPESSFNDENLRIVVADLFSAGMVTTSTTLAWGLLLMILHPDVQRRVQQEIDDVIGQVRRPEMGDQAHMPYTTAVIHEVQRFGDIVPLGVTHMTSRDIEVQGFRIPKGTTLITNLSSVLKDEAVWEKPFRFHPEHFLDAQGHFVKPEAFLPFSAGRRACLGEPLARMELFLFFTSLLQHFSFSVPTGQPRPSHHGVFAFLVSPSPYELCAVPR
Chain of ORF 73 (O40947 whole entry): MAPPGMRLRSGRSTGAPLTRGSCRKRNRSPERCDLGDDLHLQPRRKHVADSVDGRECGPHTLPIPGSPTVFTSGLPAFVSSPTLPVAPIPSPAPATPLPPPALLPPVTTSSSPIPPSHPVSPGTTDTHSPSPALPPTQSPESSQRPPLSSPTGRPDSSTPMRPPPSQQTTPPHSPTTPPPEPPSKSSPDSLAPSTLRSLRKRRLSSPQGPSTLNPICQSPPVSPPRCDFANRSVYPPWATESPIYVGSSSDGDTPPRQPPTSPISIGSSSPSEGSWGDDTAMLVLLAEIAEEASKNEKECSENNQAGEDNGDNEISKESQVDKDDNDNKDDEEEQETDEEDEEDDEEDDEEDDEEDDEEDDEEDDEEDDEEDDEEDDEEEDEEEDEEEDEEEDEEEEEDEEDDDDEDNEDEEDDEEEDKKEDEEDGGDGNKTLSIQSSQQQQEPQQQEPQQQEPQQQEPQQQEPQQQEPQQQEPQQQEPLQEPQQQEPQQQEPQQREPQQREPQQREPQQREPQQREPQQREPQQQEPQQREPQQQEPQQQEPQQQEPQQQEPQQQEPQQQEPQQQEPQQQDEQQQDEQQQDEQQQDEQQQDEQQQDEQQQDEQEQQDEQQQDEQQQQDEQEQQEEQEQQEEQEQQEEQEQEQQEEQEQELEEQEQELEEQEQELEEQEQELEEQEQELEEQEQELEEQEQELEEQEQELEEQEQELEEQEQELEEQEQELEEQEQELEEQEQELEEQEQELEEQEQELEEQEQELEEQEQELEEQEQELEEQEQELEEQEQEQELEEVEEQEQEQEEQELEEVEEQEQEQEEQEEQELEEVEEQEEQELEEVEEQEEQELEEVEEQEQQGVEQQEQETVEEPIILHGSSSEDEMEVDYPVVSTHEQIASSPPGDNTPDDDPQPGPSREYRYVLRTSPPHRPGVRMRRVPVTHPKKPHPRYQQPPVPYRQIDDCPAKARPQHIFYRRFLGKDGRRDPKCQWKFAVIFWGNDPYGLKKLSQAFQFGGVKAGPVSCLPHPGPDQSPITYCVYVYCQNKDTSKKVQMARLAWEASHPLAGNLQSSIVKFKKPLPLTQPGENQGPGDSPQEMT
Chain of Lysosomal acid glucosylceramidase (P04062 whole entry): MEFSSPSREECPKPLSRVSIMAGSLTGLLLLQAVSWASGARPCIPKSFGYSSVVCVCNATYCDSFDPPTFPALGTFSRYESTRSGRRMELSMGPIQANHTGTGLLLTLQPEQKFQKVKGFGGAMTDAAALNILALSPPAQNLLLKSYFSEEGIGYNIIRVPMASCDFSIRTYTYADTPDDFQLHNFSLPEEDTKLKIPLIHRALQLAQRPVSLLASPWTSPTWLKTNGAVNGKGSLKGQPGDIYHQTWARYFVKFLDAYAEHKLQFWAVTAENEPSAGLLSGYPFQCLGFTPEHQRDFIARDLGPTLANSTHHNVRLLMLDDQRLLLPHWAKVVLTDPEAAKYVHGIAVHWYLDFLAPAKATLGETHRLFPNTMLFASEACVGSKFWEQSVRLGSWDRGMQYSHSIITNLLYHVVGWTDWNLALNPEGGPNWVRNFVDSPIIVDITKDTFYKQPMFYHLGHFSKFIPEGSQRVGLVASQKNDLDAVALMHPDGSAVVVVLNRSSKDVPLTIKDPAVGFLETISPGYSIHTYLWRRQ
Chain of Glucose-6-phosphate 1-dehydrogenase (P11413 whole entry): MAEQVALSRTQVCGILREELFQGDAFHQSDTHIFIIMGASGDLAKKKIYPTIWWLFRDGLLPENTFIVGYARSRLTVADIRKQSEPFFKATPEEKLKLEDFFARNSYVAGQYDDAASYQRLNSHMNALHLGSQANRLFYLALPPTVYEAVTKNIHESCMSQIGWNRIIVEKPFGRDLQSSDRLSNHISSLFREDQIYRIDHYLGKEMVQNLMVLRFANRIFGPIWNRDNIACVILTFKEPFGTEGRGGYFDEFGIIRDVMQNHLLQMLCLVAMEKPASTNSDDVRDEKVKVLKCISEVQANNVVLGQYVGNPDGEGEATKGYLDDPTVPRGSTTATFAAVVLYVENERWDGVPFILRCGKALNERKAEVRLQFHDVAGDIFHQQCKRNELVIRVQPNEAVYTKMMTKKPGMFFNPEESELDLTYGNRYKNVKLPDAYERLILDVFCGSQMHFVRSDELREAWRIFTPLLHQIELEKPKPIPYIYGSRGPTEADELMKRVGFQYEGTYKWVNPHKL
Chain of Cytochrome P450 2C19 (P33261 whole entry): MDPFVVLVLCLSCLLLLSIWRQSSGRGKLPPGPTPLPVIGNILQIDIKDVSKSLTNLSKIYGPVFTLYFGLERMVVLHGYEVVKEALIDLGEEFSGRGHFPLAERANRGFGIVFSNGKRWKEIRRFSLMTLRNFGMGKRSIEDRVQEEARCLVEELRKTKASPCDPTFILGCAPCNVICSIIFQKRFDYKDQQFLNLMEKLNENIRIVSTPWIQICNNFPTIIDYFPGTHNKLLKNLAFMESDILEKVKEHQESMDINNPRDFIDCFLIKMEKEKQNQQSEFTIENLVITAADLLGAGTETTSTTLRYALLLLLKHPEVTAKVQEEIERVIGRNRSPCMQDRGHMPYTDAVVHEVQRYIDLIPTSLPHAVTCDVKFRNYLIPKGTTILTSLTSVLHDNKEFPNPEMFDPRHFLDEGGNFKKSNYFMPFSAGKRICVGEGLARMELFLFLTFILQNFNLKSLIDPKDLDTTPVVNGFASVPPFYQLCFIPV

`COc1ccc(NC(=O)c2c(OC)cccc2OC)c(OC)c1`: the EC50 – broadly, the concentration at which the effect is half-maximal – in the data set with HEK293 was > 35.4 µM (not active); in [2], > 35.4 µM (not active); in data set [3], > 35.4 µM (not active); in [4] it was > 60 µM (not active); in [6], 3.06 µM (active). Moreover, the cytotoxic concentration (CC50) (as a rule, the concentration that lowers cell viability or growth by half) in data set [1] is > 40 µM (active). Besides, the half-inhibitory concentration (IC50) (in general, the concentration that inhibits the measured activity by half) in data set [5] is > 60.5 µM (active).
With `Br.Brc1ccc(C2=Nn3c(nnc3-c3cccnc3)SC2)s1`, the EC50 in data set [7] is on record as > 50 µM (not active). For the same compound, the AC50 (usually the midpoint of the concentration-response curve, whichever way the signal moves) is “inconclusive” at Cytochrome P450 2C19, 4.47 µM (inconclusive) on Cytochrome P450 2D6 and 22.4 µM (inconclusive) at Cytochrome P450 2C9.
Regarding `O=C1C=CC2=C3c4cc(O)c(O)cc4CC3(O)COC2=C1O` (configuration not stated), the concentration at half-maximal activity (AC50) at ORF 73 was 40.3 µM (active); in the data set with HeLa, 179 µM (active). The half-maximal inhibitory concentration (IC50) was 26.5 µM (active) at Genome polyprotein; > 80 µM (inactive) in data set [8]; 16.6 µM (inactive) on Troponin, cardiac muscle.
As to `O=C(Nc1ccc(N2C(=O)[C@H]3CCCC[C@@H]3C2=O)c(Cl)c1)c1ccccn1`, the concentration for a half-maximal effect (EC50) in data set [9] was 0.65 µM (active).
